≈ marks a conversion by molar mass, not a printed value.
Assays:
Type in all cases: functional
Conditions in all cases: time 16-20 hrs
Escherichia coli = test: Antibacterial activity against Escherichia coli ATCC 25922 incubated for 16 to 20 hrs by broth microdilution method
Staphylococcus aureus = test: Antibacterial activity against Staphylococcus aureus ATCC 25923 incubated for 16 to 20 hrs by broth microdilution method
Cronobacter sakazakii = test: Antibacterial activity against Cronobacter sakazakii ATCC 29544 incubated for 16 to 20 hrs by broth microdilution method
Klebsiella pneumoniae = test: Antibacterial activity against Klebsiella pneumoniae ATCC 13883 incubated for 16 to 20 hrs by broth microdilution method

| MIC (Escherichia coli) [µg/mL] | MIC (Staphylococcus aureus) [µg/mL] | MIC (Cronobacter sakazakii) [µg/mL] | MIC (Klebsiella pneumoniae) [µg/mL] | Structure (SMILES) |
| --- | --- | --- | --- | --- |
| 4 (≈ 4.09 µM) | 1 (≈ 1.02 µM) | 8 (≈ 8.18 µM) | 4 (≈ 4.09 µM) | CC[C@H]1OC(=O)C[C@@H](O)[C@H](C)[C@@H](O[C@@H]2O[C@H](C)[C@@H](O)[C@H](N(C)C)[C@H]2O)[C@@H](CCN(Cc2ccccc2)Cc2cn(-c3cnc4ccccc4c3)nn2)C[C@@H](C)C(=O)/C=C/C(C)=C/[C@@H]1CN1CCCCCC1 |
| 8 (≈ 7.73 µM) | 2 (≈ 1.93 µM) | 32 (≈ 30.9 µM) | 32 (≈ 30.9 µM) | CC[C@H]1OC(=O)C[C@@H](O)[C@H](C)[C@@H](O[C@@H]2O[C@H](C)[C@@H](O)[C@H](N(C)C)[C@H]2O)[C@@H](CCN(Cc2ccc(N(C)C)cc2)Cc2cn(-c3cnc4ccccc4c3)nn2)C[C@@H](C)C(=O)/C=C/C(C)=C/[C@@H]1CN1CC(C)CC(C)C1 (some centres not stated) |
| 4 (≈ 3.82 µM) | 1 (≈ 0.956 µM) | 8 (≈ 7.65 µM) | 4 (≈ 3.82 µM) | CC[C@H]1OC(=O)C[C@@H](O)[C@H](C)[C@@H](O[C@@H]2O[C@H](C)[C@@H](O)[C@H](N(C)C)[C@H]2O)[C@@H](CCN(Cc2ccc(C(F)(F)F)cc2)Cc2cn(-c3cnc4ccccc4c3)nn2)C[C@@H](C)C(=O)/C=C/C(C)=C/[C@@H]1CN1CCCCCC1 |
| 8 (≈ 7.55 µM) | 1 (≈ 0.944 µM) | 8 (≈ 7.55 µM) | 8 (≈ 7.55 µM) | CCCN(CCC)C[C@H]1/C=C(C)/C=C/C(=O)[C@H](C)C[C@H](CCN(Cc2ccc(Br)cc2)Cc2cn(-c3cnc4ccccc4c3)nn2)[C@H](O[C@@H]2O[C@H](C)[C@@H](O)[C@H](N(C)C)[C@H]2O)[C@@H](C)[C@H](O)CC(=O)O[C@@H]1CC |
| 32 (≈ 35.6 µM) | 0.5 (≈ 0.556 µM) | 32 (≈ 35.6 µM) | 32 (≈ 35.6 µM) | CC[C@H]1OC(=O)C[C@@H](O)[C@H](C)[C@@H](O[C@@H]2O[C@H](C)[C@@H](O)[C@H](N(C)C)[C@H]2O)[C@@H](CCN(Cc2cncnc2)Cc2cn(-c3cnc4ccccc4c3)nn2)C[C@@H](C)C(=O)/C=C/C(C)=C/[C@@H]1CO |
| 4 (≈ 3.92 µM) | 1 (≈ 0.979 µM) | 8 (≈ 7.83 µM) | 4 (≈ 3.92 µM) | CC[C@H]1OC(=O)C[C@@H](O)[C@H](C)[C@@H](O[C@@H]2O[C@H](C)[C@@H](O)[C@H](N(C)C)[C@H]2O)[C@@H](CCN(Cc2ccc(N(C)C)cc2)Cc2cn(-c3cnc4ccccc4c3)nn2)C[C@@H](C)C(=O)/C=C/C(C)=C/[C@@H]1CN1CCCCCC1 |
| 32 (≈ 30.5 µM) | 4 (≈ 3.81 µM) | 32 (≈ 30.5 µM) | 16 (≈ 15.2 µM) | CC[C@H]1OC(=O)C[C@@H](O)[C@H](C)[C@@H](O[C@@H]2O[C@H](C)[C@@H](O)[C@H](N(C)C)[C@H]2O)[C@@H](CCN(Cc2ccc(N(C)C)cc2)Cc2cn(-c3cnc4ccccc4c3)nn2)C[C@@H](C)C(=O)/C=C/C(C)=C/[C@@H]1CI |
| 32 (≈ 35.6 µM) | 0.125 (≈ 0.139 µM) | 32 (≈ 35.6 µM) | 32 (≈ 35.6 µM) | CC[C@H]1OC(=O)C[C@@H](O)[C@H](C)[C@@H](O[C@@H]2O[C@H](C)[C@@H](O)[C@H](N(C)C)[C@H]2O)[C@@H](CCN(Cc2ccncc2)Cc2cn(-c3cnc4ccccc4c3)nn2)C[C@@H](C)C(=O)/C=C/C(C)=C/[C@@H]1CO |
| 32 (≈ 31.8 µM) | 2 (≈ 1.99 µM) | 32 (≈ 31.8 µM) | 32 (≈ 31.8 µM) | CC[C@H]1OC(=O)C[C@@H](O)[C@H](C)[C@@H](O[C@@H]2O[C@H](C)[C@@H](O)[C@H](N(C)C)[C@H]2O)[C@@H](CCN(Cc2ccccc2)Cc2cn(-c3cnc4ccccc4c3)nn2)C[C@@H](C)C(=O)/C=C/C(C)=C/[C@@H]1CI |
| 4 (≈ 4.02 µM) | 0.5 (≈ 0.502 µM) | 16 (≈ 16.1 µM) | 8 (≈ 8.04 µM) | CC[C@H]1OC(=O)C[C@@H](O)[C@H](C)[C@@H](O[C@@H]2O[C@H](C)[C@@H](O)[C@H](N(C)C)[C@H]2O)[C@@H](CCN(Cc2ccc(N(C)C)cc2)Cc2cn(-c3cnc4ccccc4c3)nn2)C[C@@H](C)C(=O)/C=C/C(C)=C/[C@@H]1CN(CC)CC |
| 8 (≈ 9.13 µM) | 0.5 (≈ 0.571 µM) | 16 (≈ 18.3 µM) | 8 (≈ 9.13 µM) | CC[C@H]1OC(=O)C[C@@H](O)[C@H](C)[C@@H](O[C@@H]2O[C@H](C)[C@@H](O)[C@H](N(C)C)[C@H]2O)[C@@H](CCN(C)Cc2cn(-c3cnc4ccccc4c3)nn2)C[C@@H](C)C(=O)/C=C/C(C)=C/[C@@H]1CN(C)C(C)C |
| 16 (≈ 15.6 µM) | 2 (≈ 1.95 µM) | 32 (≈ 31.3 µM) | 16 (≈ 15.6 µM) | CC[C@H]1OC(=O)C[C@@H](O)[C@H](C)[C@@H](O[C@@H]2O[C@H](C)[C@@H](O)[C@H](N(C)C)[C@H]2O)[C@@H](CCN(Cc2ccc(N(C)C)cc2)Cc2cn(-c3cnc4ccccc4c3)nn2)C[C@@H](C)C(=O)/C=C/C(C)=C/[C@@H]1CN1CCC(O)CC1 |
| 4 (≈ 4.02 µM) | 0.5 (≈ 0.503 µM) | 16 (≈ 16.1 µM) | 8 (≈ 8.05 µM) | CC[C@H]1OC(=O)C[C@@H](O)[C@H](C)[C@@H](O[C@@H]2O[C@H](C)[C@@H](O)[C@H](N(C)C)[C@H]2O)[C@@H](CCN(Cc2ccc(OC)cc2)Cc2cn(-c3cnc4ccccc4c3)nn2)C[C@@H](C)C(=O)/C=C/C(C)=C/[C@@H]1CN1CCCCC1 |

— ChEMBL document CHEMBL5126592, “Design, synthesis and activity against drug-resistant bacteria evaluation of C-20, C-23 modified 5-O-mycaminosyltylonolide derivatives” (Eur J Med Chem, 2022)
